Measured values published in patent US10174053B2, “2 substituted cephem compounds” (Glaxo Group Limited, priority 2012, dated 2019).
≈ marks a conversion by molar mass, not a printed value.

Assays:
Test in all cases: In vitro antimicrobial activity, MIC by broth microdilution (CLSI)
Type in all cases: cell-based
A. baumannii JMI2346 = settings: Acinetobacter baumannii, JMI2346; OXA-51, TEM, ESBL and OXA-type carbapenemase producing strain; 5×10^5 cfu/mL; cation-adjusted Iso-Sensitest broth containing human Apo-transferrin; read-out: Minimum Inhibitory Concentration (MIC) A. baumannii JMI:2346
Summary of the method: (§1)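 MIC (μg/mL) by CLSI broth microdilution, inoculum 5×10^5 cfu/mL, in cation-adjusted Iso-Sensitest broth containing human apo-transferrin.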

A. baumannii JMI7 = settings: Acinetobacter baumannii, JMI7; PER-1, OXA-23, 51, ESBL and OXA-type carbapenemase producing strain; 5×10^5 cfu/mL; cation-adjusted Iso-Sensitest broth containing human Apo-transferrin; read-out: Minimum Inhibitory Concentration (MIC) A. baumannii JMI:7
Summary of the method: as §1

E. Coli JMI1890 = settings: Escherichia coli; PER-1, TEM-1, ESBL producing strain; 5×10^5 cfu/mL; cation-adjusted Iso-Sensitest broth containing human Apo-transferrin; read-out: Minimum Inhibitory Concentration (MIC) E. Coli JMI:1890
Summary of the method: as §1

K. pneumoniae SR01358 = settings: Klebsiella pneumoniae, SR01358; KPC-2, ESBL and KPC-type carbapenemase producing strain; 5×10^5 cfu/mL; cation-adjusted Iso-Sensitest broth containing human Apo-transferrin; read-out: Minimum Inhibitory Concentration (MIC) K. pneumoniae SR01358
Summary of the method: as §1

Structure (SMILES) | MIC (A. baumannii JMI2346) | MIC (A. baumannii JMI7) | MIC (E. Coli JMI1890) | MIC (K. pneumoniae SR01358)
C[C@@H]1S[C@@H]2[C@H](NC(=O)/C(=N\O[C@@H](CC(=O)[O-])C(=O)[O-])c3csc(N)n3)C(=O)N2C(C(=O)[O-])=C1C[N+]12CCC(CC1)N(C(=O)C(=O)c1cc(O)c(O)c(Cl)c1)CC2.[Na+].[Na+] [Compound I-17] | 16 µg/mL | 4 µg/mL | 2 µg/mL | ≤ 0.031 µg/mL
C[C@@H]1S[C@@H]2[C@H](NC(=O)/C(=N\OC(C)(C)C(=O)O)c3csc(N)n3)C(=O)N2C(C(=O)[O-])=C1C[N+]12CCC(Cn3cnc4cc(O)c(O)cc4c3=O)(CC1)CC2 [Compound I-150, (4S,6R,7R)-7-((Z)-2-(2-aminothiazol-4-yl)-2-(((2-carboxypropan-2-yl)oxy)imino)acetamido)-3-((4-((6,7-dihydroxy-4-oxoquinazolin-3(4H)-yl)methyl)quinuclidin-1-ium-1-yl)methyl)-4-methyl-8-oxo-5-thia-1-azabicyclo[4.2.0]oct-2-ene-2-carboxylate] | 2 µg/mL (≈ 2.55 µM) | 0.5 µg/mL (≈ 0.639 µM) | 2 µg/mL (≈ 2.55 µM) | ≤ 0.031 µg/mL
C[C@@H]1S[C@@H]2[C@H](NC(=O)/C(=N\OC(C)(C)C(=O)[O-])c3csc(N)n3)C(=O)N2C(C(=O)O)=C1C[N+]12CCC(CN3C(=O)c4ccc(O)c(O)c4C3=O)(CC1)CC2 [Compound I-39] | 1 µg/mL (≈ 1.28 µM) | 0.125 µg/mL (≈ 0.159 µM) | 0.25 µg/mL (≈ 0.319 µM) | 0.063 µg/mL (≈ 0.0804 µM)
C[C@@H]1S[C@@H]2[C@H](NC(=O)/C(=N\OC(C)(C)C(=O)[O-])c3csc(N)n3)C(=O)N2C(C(=O)[O-])=C1C[N+]12CCC[C@H]1CN(C(=O)c1cc(O)c(O)c(Cl)c1)CC2.[Na+] (some centres unmarked) [Compound I-64] | 4 µg/mL | 2 µg/mL | 0.125 µg/mL | ≤ 0.031 µg/mL
C[C@@H]1S[C@@H]2[C@H](NC(=O)/C(=N\OC(C)(C)C(=O)[O-])c3csc(N)n3)C(=O)N2C(C(=O)O)=C1C[N+]1(CCNC(=O)c2cn(C3CC3)c3cc(O)c(O)c(Cl)c3c2=O)CCCC1 [Compound I-90] | 8 µg/mL (≈ 9.16 µM) | 0.5 µg/mL (≈ 0.572 µM) | 1 µg/mL (≈ 1.14 µM) | ≤ 0.031 µg/mL
C[C@@H]1S[C@@H]2[C@H](NC(=O)/C(=N\OC(C)(C)C(=O)[O-])c3csc(N)n3)C(=O)N2C(C(=O)[O-])=C1C[N+]12CCC(CC1)N(C(=O)c1ccc(O)c(O)c1Cl)CC2.[Na+] [Compound I-62] | 2 µg/mL | 0.5 µg/mL | 0.063 µg/mL | ≤ 0.031 µg/mL
C[C@@H]1S[C@@H]2[C@H](NC(=O)/C(=N\OC(C)(C)C(=O)[O-])c3csc(N)n3)C(=O)N2C(C(=O)O)=C1C[N+]1(CCNC(=O)c2ccc(O)c(O)c2Cl)CCCC1 [Compound I-52] | 4 µg/mL (≈ 5.22 µM) | 1 µg/mL (≈ 1.31 µM) | 0.25 µg/mL (≈ 0.326 µM) | ≤ 0.031 µg/mL
CO/N=C(\C(=O)NCC12CC[N+](CC3=C(C(=O)O)N4C(=O)[C@@H](NC(=O)/C(=N\OC(C)(C)C(=O)[O-])c5csc(N)n5)[C@H]4S[C@H]3C)(CC1)CC2)c1ccc(O)c(O)c1Cl [Compound I-96] | 8 µg/mL (≈ 9.42 µM) | 1 µg/mL (≈ 1.18 µM) | 0.125 µg/mL (≈ 0.147 µM) | ≤ 0.031 µg/mL
C[C@@H]1S[C@@H]2[C@H](NC(=O)/C(=N\OC(C)(C)C(=O)[O-])c3csc(N)n3)C(=O)N2C(C(=O)[O-])=C1C[N+]1(C)[C@@H]2CC[C@H]1C[C@@H](NC(=O)c1cc(O)c(O)c(F)c1)C2.[Na+] (some centres unmarked) [Compound I-71] | 2 µg/mL | 0.5 µg/mL | 0.25 µg/mL | ≤ 0.031 µg/mL
C[C@@H]1S[C@@H]2[C@H](NC(=O)/C(=N\OC(C)(C)C(=O)[O-])c3csc(N)n3)C(=O)N2C(C(=O)[O-])=C1C[N+]1(CCNC(=O)c2cc(O)c(O)c(Cl)c2)CCCC1.[Na+] [Compound I-61] | 16 µg/mL | 2 µg/mL | 2 µg/mL | 0.063 µg/mL
C[C@@H]1S[C@@H]2[C@H](NC(=O)/C(=N\OC(C)(C)C(=O)[O-])c3csc(N)n3)C(=O)N2C(C(=O)O)=C1C[N+]12CCC(CNC(=O)c3ccc(O)c(O)c3Cl)(CC1)CC2 [Compound I-40] | 4 µg/mL (≈ 5.05 µM) | 1 µg/mL (≈ 1.26 µM) | 0.5 µg/mL (≈ 0.631 µM) | 0.063 µg/mL (≈ 0.0795 µM)
